Experimental data reported in US10428044B2, “3-amino-1,5,6,7-tetrahydro-4H-indol-4-ones” (Bayer Pharma Aktiengesellschaft, priority 2014, dated 2019).
Counter-ions that a name gives are not always drawn.

Target: (recombinant) catalytic domain of human Bub1 (amino acids 704-1085) (Homo sapiens (Human), UniProt O43683)
Experiment: Bub1 kinase assay (TR-FRET)
Format: biochemical
Details: ATP 10 μM final, peptide substrate 1 μM final, 60 min at 22° C., read-out: Biological Assay: Bub1 kinase assay median IC50
Procedure, shortened: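 Compounds were serially diluted 1:3.4 from 2 mM DMSO stocks and incubated with the enzyme reaction for 60 min at 22° C. The reaction was stopped with EDTA, and biotinylated peptide phosphorylation was read by TR-FRET using Eu anti-mouse IgG, anti-phosphoserine antibody and streptavidin-XL665. IC50 was fitted by 4-parameter logistic to inhibition normalized to no-inhibitor and no-enzyme controls.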

Sequence of (recombinant) catalytic domain of human Bub1 (amino acids 704-1085) (O43683 704-1085): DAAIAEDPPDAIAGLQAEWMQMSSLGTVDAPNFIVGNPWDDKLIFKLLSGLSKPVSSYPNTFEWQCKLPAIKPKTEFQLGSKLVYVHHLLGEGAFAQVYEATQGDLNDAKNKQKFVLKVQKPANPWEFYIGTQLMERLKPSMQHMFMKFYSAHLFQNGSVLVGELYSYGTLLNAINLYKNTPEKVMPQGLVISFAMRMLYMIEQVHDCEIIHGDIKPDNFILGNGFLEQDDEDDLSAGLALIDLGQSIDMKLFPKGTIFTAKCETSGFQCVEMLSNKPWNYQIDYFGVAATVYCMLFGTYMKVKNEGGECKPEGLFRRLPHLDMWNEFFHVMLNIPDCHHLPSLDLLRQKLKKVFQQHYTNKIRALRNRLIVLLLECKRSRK

SMILES	IC50 [nM]
CC1(C)CC(=O)c2c([nH]c(-c3ccncc3)c2Nc2cccc(Br)c2)C1 [Example 12, 3-[(3-bromophenyl)amino]-6,6-dimethyl-2-(pyridin-4-yl)-1,5,6,7-tetrahydro-4H-indol-4-one]	15.4
CC1(C)CC(=O)c2c([nH]c(-c3ccncc3)c2Nc2cccc(C(C)(C)C)c2)C1 [Example 114, 3-[(3-tert-butylphenyl)amino]-6,6-dimethyl-2-(pyridin-4-yl)-1,5,6,7-tetrahydro-4H-indol-4-one]	8640
CC1(C)CC(=O)c2c([nH]c(-c3ccnc(OCc4ccccc4)c3)c2Nc2ccccc2)C1 [Example 468, 2-[2-(benzyloxy)pyridin-4-yl]-6,6-dimethyl-3-(phenylamino)-1,5,6,7-tetrahydro-4H-indol-4-one]	> 20000
CC1(C)CC(=O)c2c([nH]c(-c3ccncc3)c2Nc2ccc(S(N)(=O)=O)cc2)C1 [Example 432, 4-{[6,6-dimethyl-4-oxo-2-(pyridin-4-yl)-4,5,6,7-tetrahydro-1H-indol-3-yl]amino}benzenesulfonamide]	2360
CC1(C)CC(=O)c2c([nH]c(-c3ccncc3F)c2Nc2ccccc2)C1 [Example 30, 2-(3-fluoropyridin-4-yl)-6,6-dimethyl-3-(phenylamino)-1,5,6,7-tetrahydro-4H-indol-4-one]	5.69
CC1(C)CC(=O)c2c([nH]c(-c3ccncc3OCCO)c2Nc2ccccc2)C1 [Example 409, 2-[3-(2-hydroxyethoxy)pyridin-4-yl]-6,6-dimethyl-3-(phenylamino)-1,5,6,7-tetrahydro-4H-indol-4-one]	9.63
CC1(C)CC(=O)c2c(Nc3ccccc3)c(-c3ccncc3)n(Cc3ccccc3)c2C1 [Example 186, 1-benzyl-6,6-dimethyl-3-(phenylamino)-2-(pyridin-4-yl)-1,5,6,7-tetrahydro-4H-indol-4-one]	2940
CC1(C)CC(=O)c2c([nH]c(-c3ccncc3)c2Nc2ccc3cn[nH]c3c2)C1 [Example 74, 3-(1H-indazol-6-ylamino)-6,6-dimethyl-2-(pyridin-4-yl)-1,5,6,7-tetrahydro-4H-indol-4-one]	82.3
CC(C)C1CC(=O)c2c([nH]c(-c3ccncc3)c2Nc2ccccc2)C1 (stereo not drawn) [Example 7, 3-(phenylamino)-6-(propan-2-yl)-2-(pyridin-4-yl)-1,5,6,7-tetrahydro-4H-indol-4-one]	5.57
O=C(O)CCn1c2c(c(Nc3ccccc3)c1-c1ccncc1)C(=O)CCC2 [Example 173, 3-[4-oxo-3-(phenylamino)-2-(pyridin-4-yl)-4,5,6,7-tetrahydro-1H-indol-1-yl]propanoic acid]	474
Cc1cccc(Nc2c(-c3ccncc3)[nH]c3c2C(=O)CC(C)(C)C3)c1CO [Example 483, 3-{[2-(hydroxymethyl)-3-methylphenyl]amino}-6,6-dimethyl-2-(pyridin-4-yl)-1,5,6,7-tetrahydro-4H-indol-4-one]	9.48
COc1cc(Nc2c(-c3ccncc3)[nH]c3c2C(=O)CC(C)(C)C3)ccc1F [Example 110, 3-[(4-fluoro-3-methoxyphenyl)amino]-6,6-dimethyl-2-(pyridin-4-yl)-1,5,6,7-tetrahydro-4H-indol-4-one]	235
Cc1ccc(Nc2c(-c3ccncc3)[nH]c3c2C(=O)CC(C)(C)C3)cc1Cl [Example 92, 3-[(3-chloro-4-methylphenyl)amino]-6,6-dimethyl-2-(pyridin-4-yl)-1,5,6,7-tetrahydro-4H-indol-4-one]	296
CC1(C)CC(=O)c2c([nH]c(-c3c(F)cncc3F)c2Nc2ccccc2)C1 [Example 135, 2-(3,5-difluoropyridin-4-yl)-6,6-dimethyl-3-(phenylamino)-1,5,6,7-tetrahydro-4H-indol-4-one]	188
C[S+]([O-])c1cnccc1-c1[nH]c2c(c1Nc1ccccc1)C(=O)CC(C)(C)C2 (stereo not drawn) [Example 202, {4-[6,6-dimethyl-4-oxo-3-(phenylamino)-4,5,6,7-tetrahydro-1H-indol-2-yl]pyridin-3-yl}(methyl)sulfoniumolate]	1990
CC1(C)CC(=O)c2c(Nc3ccccc3)c(-c3ccncc3)n(CC(N)=O)c2C1 [Example 185, 2-[3-anilino-6,6-dimethyl-4-oxo-2-(pyridin-4-yl)-4,5,6,7-tetrahydro-1H-indol-1-yl]acetamide formic acid salt]	1300
COc1cnccc1-c1[nH]c2c(c1Nc1ccccc1)C(=O)CC(C)(C)C2 [Example 403, 2-(3-methoxypyridin-4-yl)-6,6-dimethyl-3-(phenylamino)-1,5,6,7-tetrahydro-4H-indol-4-one]	9.3
CC(O)c1cccc(Nc2c(-c3ccncc3)[nH]c3c2C(=O)CC(C)(C)C3)c1 (stereo not drawn) [Example 112, 3-{[3-(1-hydroxyethyl)phenyl]amino}-6,6-dimethyl-2-(pyridin-4-yl)-1,5,6,7-tetrahydro-4H-indol-4-one]	3480
O=C1CC(CCl)Cc2[nH]c(-c3ccncc3)c(Nc3ccccc3)c21 (stereo not drawn) [Example 443, 6-(chloromethyl)-3-(phenylamino)-2-(pyridin-4-yl)-1,5,6,7-tetrahydro-4H-indol-4-one]	5.05
CC(C)c1ccccc1Nc1c(-c2ccncc2)[nH]c2c1C(=O)CC(C)(C)C2 [Example 88, 6,6-dimethyl-3-{[2-(propan-2-yl)phenyl]amino}-2-(pyridin-4-yl)-1,5,6,7-tetrahydro-4H-indol-4-one]	2610

Continued, values first:

IC50 [nM]	SMILES
271	CN(CC(=O)Nc1cc(-c2[nH]c3c(c2Nc2ccccc2)C(=O)CCC3)ccn1)C(=O)OC(C)(C)C [Example 297, tert-butyl methyl[2-oxo-2-({4-[4-oxo-3-(phenylamino)-4,5,6,7-tetrahydro-1H-indol-2-yl]pyridin-2-yl}amino)ethyl]carbamate]
48.2	O=C(Nc1cc(-c2[nH]c3c(c2Nc2ccccc2)C(=O)CCC3)ccn1)c1ncc[nH]1 [Example 274, N-{4-[4-oxo-3-(phenylamino)-4,5,6,7-tetrahydro-1H-indol-2-yl]pyridin-2-yl}-1H-imidazole-2-carboxamide]
6.49	CC1(C)CC(=O)c2c([nH]c(-c3ccnc(NC(=O)[C@@H]4C[C@@H]4F)c3)c2Nc2ccccc2)C1 [Example 258]
579	CC1(C)CC(=O)c2c([nH]c(-c3ccnc(CO)c3)c2Nc2ccccc2)C1 [Example 437, 2-[2-(hydroxymethyl)pyridin-4-yl]-6,6-dimethyl-3-(phenylamino)-1,5,6,7-tetrahydro-4H-indol-4-one]
356	O=C1CCCc2[nH]c(-c3ccnc(NCc4cncs4)c3)c(Nc3ccccc3)c21 [Example 500, 3-(phenylamino)-2-{2-[(1,3-thiazol-5-ylmethyl)amino]pyridin-4-yl}-1,5,6,7-tetrahydro-4H-indol-4-one]
10.1	O=C(Nc1ccncc1)Nc1cc(-c2[nH]c3c(c2Nc2ccccc2)C(=O)CCC3)ccn1 [Example 385, 1-{4-[4-oxo-3-(phenylamino)-4,5,6,7-tetrahydro-1H-indol-2-yl]pyridin-2-yl}-3-pyridin-4-ylurea]
26.4	CC(=O)Nc1cc(-c2[nH]c3c(c2Nc2ccccc2)C(=O)CC(C)(C)C3)ccn1 [Example 36, N-{4-[6,6-dimethyl-4-oxo-3-(phenylamino)-4,5,6,7-tetrahydro-1H-indol-2-yl]pyridin-2-yl}acetamide]
94.1	Cc1cc(-c2[nH]c3c(c2Nc2ccccc2)C(=O)CC(C)(C)C3)ccn1 [Example 149, 6,6-dimethyl-2-(2-methylpyridin-4-yl)-3-(phenylamino)-1,5,6,7-tetrahydro-4H-indol-4-one]
1010	O=C1CCCc2[nH]c(-c3ccnc(NC[C@H](O)CO)c3)c(Nc3ccccc3)c21 [Example 371, 2 2-(2-{[(2S)-2,3-dihydroxypropyl]amino}pyridin-4-yl)-3-(phenylamino)-1,5,6,7-tetrahydro-4H-indol-4-one]
7.66	O=C(Nc1cc(-c2[nH]c3c(c2Nc2ccccc2)C(=O)CCC3)ccn1)c1cncs1 [Example 273, N-{4-[4-oxo-3-(phenylamino)-4,5,6,7-tetrahydro-1H-indol-2-yl]pyridin-2-yl}-1,3-thiazole-5-carboxamide]
1410	C[C@@H](C(=O)Nc1cc(-c2[nH]c3c(c2Nc2ccccc2)C(=O)CCC3)ccn1)N(C)C(=O)OC(C)(C)C [Example 303, tert-butyl methyl[(2S)-1-oxo-1-({4-[4-oxo-3-(phenylamino)-4,5,6,7-tetrahydro-1H-indol-2-yl]pyridin-2-yl}amino)propan-2-yl]carbamate]
12.6	O=C(Nc1cc(-c2[nH]c3c(c2Nc2ccccc2)C(=O)CCC3)ccn1)c1cccnc1 [Example 279, N-{4-[4-oxo-3-(phenylamino)-4,5,6,7-tetrahydro-1H-indol-2-yl]pyridin-2-yl}pyridine-3-carboxamide]
7.64	O=C(Nc1cc(-c2[nH]c3c(c2Nc2ccccc2)C(=O)CCC3)ccn1)c1cscn1 [Example 271, N-{4-[4-oxo-3-(phenylamino)-4,5,6,7-tetrahydro-1H-indol-2-yl]pyridin-2-yl}-1,3-thiazole-4-carboxamide]
30.8	O=C(Cc1nccs1)Nc1cc(-c2[nH]c3c(c2Nc2ccccc2)C(=O)CCC3)ccn1 [Example 285, N-{4-[4-oxo-3-(phenylamino)-4,5,6,7-tetrahydro-1H-indol-2-yl]pyridin-2-yl}-2-(1,3-thiazol-2-yl)acetamide]
63.5	O=C(NCC(F)F)Nc1cc(-c2[nH]c3c(c2Nc2ccccc2)C(=O)CCC3)ccn1 [Example 387, 1-(2,2-difluoroethyl)-3-{4-[4-oxo-3-(phenylamino)-4,5,6,7-tetrahydro-1H-indol-2-yl]pyridin-2-yl}urea]
52.3	CCn1c2c(c(Nc3ccccc3)c1-c1ccnc(NC(C)=O)c1)C(=O)CC(C)(C)C2 [Example 187, N-{4-[1-ethyl-6,6-dimethyl-4-oxo-3-(phenylamino)-4,5,6,7-tetrahydro-1H-indol-2-yl]pyridin-2-yl}acetamide]
